# Source: patent US5462933A, “Modified bile acid conjugates, and their use as pharmaceuticals” (Hoechst Aktiengesellschaft, priority 1989, dated 1995)
# Experiments:
# [1] = In vivo perfused liver: absorption from portal vein blood and excretion into the bile; design: species or system rat; conditions: after W (Chlorambucil) into mesenteric vein
# Description: In order to investigate a selective absorption of bile acid derivatives into the liver and their hepatotropic action, the appropriate derivatives were injected as a bolus into a mesenteric vein of anesthetized rats and the excretion of these derivatives and the corresponding active compounds or active compound metabolites into the bile was analysed.
# Male Sprague-Dawley rats (300-500 g bodyweight) had their food withdrawn and received water ad libitum. After tracheotomy, the abdomen was opened by median section under urethane anesthesia ([…] i.m. urethane 30%). The pylorus was ligated and the bile duct was cannulated by advancing a polyethylene tube (d=0.05 mm) up to the liver and the bile was drained. The volume of secretion was measured at 15 minute intervals. After a preliminary period of 60 minutes, the substances (0.5 ml of a 1 mM solution in 0.9% NaCl solution) were administered into a mesenteric vein in the course of 30 sec and the bile was collected at prestated time intervals (2, 4, 6, 8, 10, 15, 20, 30, 40, 50, 60, 70, 80, 90, 100, 110 and 120 min). The bile acid derivative was administered first, and the appropriate active compound was administered after a collection period of 2 hours. 120 min after administration of test substance, the bladder volume was measured and the urine was also collected. The bile and urine samples were stored on ice during the experiment and then deep-frozen.
# Each 10 μl bile sample was applied to TLC plates (10×20 cm, silica gel 60 specific layer thickness 0.25 mm, No. 37581 Riedel de Haen, Seelze, Federal Republic of Germany) using Microcaps (Drummond, Broomall, USA) and the thin-layer plates were dried in the air for 20 min.
# The plates were developed in the following mobile phases: Substance Mobile phase
# The constituents of the mobile phases were bought from the usual manufacturers in the highest possible purity grade. After developing and drying the plates, the distribution of the active compounds and the bile acid derivatives, or their metabolites, was determined by densitometry (CD 50 densitometer, DESAGA; Heidelberg). Detection was carried out in reflection mode with linear sampling at the wavelengths 252 nm (chlorambucil/chlorambucil conjugate) or 260 nm (remaining substances).
# In order to evaluate the chromatograms, the relative intensity of the bile acid derivatives, the active compounds or the active compound metabolites on a chromatogram was given in surface area units.
# [2] = molecular target: T1, Na+-dependent bile acid transport system (Oryctolagus cuniculus, UniProt Q28727); assay: Inhibition of Na+-dependent [3H]taurocholate absorption into brush-border membrane vesicles of the ileum; assay type: biochemical, rabbit; conditions: read-out: IC50
# T1 construct: brush-border membrane vesicles from the ileum of rabbits; from tissue; host or cells: terminal ileum of male New Zealand rabbits, brush-border membrane vesicles
# T1 sequence (Q28727 1-347): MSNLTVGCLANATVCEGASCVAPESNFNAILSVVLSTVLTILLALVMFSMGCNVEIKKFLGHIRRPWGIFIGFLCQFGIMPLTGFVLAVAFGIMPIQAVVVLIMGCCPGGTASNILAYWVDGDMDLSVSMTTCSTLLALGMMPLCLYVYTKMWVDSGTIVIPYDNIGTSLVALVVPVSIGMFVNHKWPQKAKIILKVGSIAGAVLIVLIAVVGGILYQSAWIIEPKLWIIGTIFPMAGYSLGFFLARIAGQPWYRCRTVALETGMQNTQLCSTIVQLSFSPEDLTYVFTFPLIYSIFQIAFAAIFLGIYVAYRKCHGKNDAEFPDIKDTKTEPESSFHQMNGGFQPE
# Description: The preparation of brush-border membrane vesicles from the intestinal cells of the small intestine was carried out using the so-called Mg^2+ precipitation method. Male New Zealand rabbits (2-2.5 kg body weight) were sacrificed by intravenous injection of 0.5 ml of T-61^R. The small intestine was removed and rinsed with ice-cold physiological saline solution. The terminal 3/10 of the small intestine (measured in the oral-rectal direction, i.e. the terminal ileum, which contains the active Na^+ -dependent bile acid transport system) were used for preparation of the brush-border membrane vesicles. The intestines were frozen at -80° C. under nitrogen in plastic bags. The frozen intestines were thawed in a water bath at 30° C. in order to prepare the membrane vesicles. The mucosa was scraped off and suspended in 60 ml of ice-cold 12 mM trys/HCl buffer (pH 7.1)/300 mM mannitol, 5 mM EGTA/10 mg/l of phenylmethylsulfonyl fluoride/1 mg/l of soybean trypsin inhibitor (32 U/mg)/0.5 mg/l of bovine lung trypsin inhibitor (193 U/mg)/5 mg/l of bacitracin. After diluting to 300 ml with ice-cold distilled water, the suspension was homogenized with ice-cooling for 3 minutes at 75% of maximum power using an Ultraturrax (18 rod, IKA Werk Staufen, Federal Republic of Germany). After addition of 3 ml of 1M MgCl2 solution (final concentration 10 mM), the homogenate was allowed to stand at 0° C. for exactly 1 minute. As a result of addition of Mg^2+, the cell membranes aggregate and precipitate with the exception of the brush-border membranes. After centrifugation at 3,000×g (5,000 rpm, SS-34 rotor) for 15 minutes, the precipitate is discarded and the supernatant which contains the brush-border membranes is centrifuged at 26,700×g (15,000 rpm, SS-34 rotor) for 30 minutes. The supernatant was discarded, and the precipitate was rehomogenized in 60 ml of 12 mM tris/HCl buffer (pH 7.1)/60 mM mannitol, 5 mM EGTA using a Potter Elvejhem homogenizer (Braun Melsungen, 900 rpm, 10 strokes). After addition of 0.1 ml of 1M MgCl2 solution and an incubation time of 15 minutes at 0° C., the mixture was again centrifuged at 3,000×g for 15 minutes. The supernatant was then again centrifuged at […] (15,000 rpm, SS-34 rotor) for 30 minutes. The precipitate was taken up in 30 ml of 10 mM tris/hepes buffer (pH 7.4)/300 mM mannitol and homogeneously resuspended by 20 strokes in a Potter Elvejhem homogenizer at 1,000 rpm. After centrifugation at 48,000×g (20,000 rpm, SS-34 rotor) for 30 minutes, the precipitate was taken up in 0.5 to 2 ml of tris/hepes buffer (pH 7.4)/280 mM mannitol (final concentration 20 mg/ml) and resuspended with the aid of a tuberculin syringe using a 27 gauge needle. The vesicles were either used immediately after preparation for transport investigations or stored at -196° C. in liquid nitrogen in 4 mg portions.
# The absorption of substrates into brush-border membrane vesicles was determined by means of the so-called membrane filtration technique. 10 μl of the vesicle suspension (100 μg of protein) were pipetted on the wall of a polystyrene incubation tube (11×70 mm) as a drop which contained the incubation medium together with the corresponding ligands (90 μl ). […] The incubation medium was filtered through a polyvinylidene fluoride membrane filter (SYHV LO 4NS, 0.45 μm, 4 mm .phi., Millipore, Eschborn, Federal Republic of Germany). The transport measurement was begun by mixing the vesicles with the incubation medium. […] After the desired incubation time (customarily 1 min), the transport was stopped by addition of 1 ml of ice-cold stop solution (10 mM tris/hepes, (pH 7.4)/150 mM KCl). The resulting mixture was immediately filtered off with suction in a vacuum of 25 to 35 mbar through a membrane filter made of cellulose nitrate (ME 25, 0.45 μm, 25 mm diameter, Schleicher & Schuell, Dassell, Federal Republic of Germany). The filter was subsequently washed with 5 ml of ice-cold Stop solution.
Compound,Conc. of W or a metabolite of W in bile ([1]; bile at 2 min) [surface area units],Conc. of W or a metabolite of W in bile ([1]; bile at 4 min) [surface area units],Conc. of W or a metabolite of W in bile ([1]; bile at 6 min) [surface area units],Conc. of W or a metabolite of W in bile ([1]; bile at 8 min) [surface area units],Conc. of W or a metabolite of W in bile ([1]; bile at 10 min) [surface area units],Conc. of W or a metabolite of W in bile ([1]; bile at 15 min) [surface area units],Conc. of W or a metabolite of W in bile ([1]; bile at 20 min) [surface area units],Conc. of W or a metabolite of W in bile ([1]; bile at 30 min) [surface area units],Conc. of W or a metabolite of W in bile ([1]; bile at 40 min) [surface area units],Conc. of W or a metabolite of W in bile ([1]; bile at 60 min) [surface area units],Conc. of W or a metabolite of W in bile ([1]; bile at 70 min) [surface area units],Conc. of W or a metabolite of W in bile ([1]; bile at 80 min) [surface area units],Conc. of W or a metabolite of W in bile ([1]; bile at 90 min) [surface area units],Conc. of W or a metabolite of W in bile ([1]; bile at 100 min) [surface area units],Conc. of W or a metabolite of W in bile ([1]; bile at 110 min) [surface area units],Conc. of W or a metabolite of W in bile ([1]; bile at 120 min) [surface area units],IC50 [2] [µM]
"O=C(O)CCCc1ccc(N(CCCl)CCCl)cc1 [Chlorambucil, [4-(bis-N-(2'-chloroethyl)-aminophenyl)]-butyric acid, reference compound]",1012,885,1044,1160,810,689,1481,704,511,620,1769,501,813,523,604,531,
"C[C@H](CCC(=O)NCCS(=O)(=O)O)[C@H]1CC[C@H]2[C@@H]3CC[C@@H]4C[C@H](O)CC[C@]4(C)[C@H]3CC[C@]12C [Taurolithocholate, reference compound]",,,,,,,,,,,,,,,,,12
"C[C@H](CCC(=O)NCCS(=O)(=O)O)[C@H]1CC[C@H]2[C@@H]3CC[C@@H]4C[C@H](OS(=O)(=O)O)CC[C@]4(C)[C@H]3CC[C@]12C [Taurolithocholate-3-sulfate, reference compound]",,,,,,,,,,,,,,,,,245
